# The METLIN SMRT retention time set (Domingo-Almenara et al. 2019)
# Experiment: gradient 5% acetonitrile 3 min, to 50% in 2 min, to 85% in 15 min, held 3 min, 100 µL/min
# Conditions: column: Zorbax Extend-C18 2.1 x 50 mm; eluents: water / acetonitrile, 0.1% formic acid
# How it was run: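 Each retention time is based on an adduct peak selected computationally and verified by manual inspection. Measurements used HPLC–quadrupole time-of-flight mass spectrometry in positive and negative ionization mode on mixtures of ~100 pure standards. Chromatography ran on a Zorbax Extend-C18 column (2.1 × 50 mm, 1.8 μm) at 100 μL/min with water and acetonitrile, each containing 0.1% formic acid, and dead and dwell volumes of 40 μL and 900 μL.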
row,RP-LC retention time [s],SMILES
1,681,CCn1cc(CN2CCC(N3C(=O)C4(CCCCC4)C3c3ccccc3)CC2)cn1 (centres undefined)
2,963,Cc1cc(F)ccc1NS(=O)(=O)c1ccc(-c2nnc(C3CCC3)o2)o1
3,556,COC(=O)N1CCc2ccccc2C1C(=O)NCCCn1ccnc1 (centres undefined)
4,558,CN1CCN(CCCNC(=O)C2CCN(c3nc4cccnc4s3)CC2)CC1
5,632,CC1CCCCN1CCNC(=O)CCCn1c2ccccc2c2cnn(C)c(=O)c21 (centres undefined)
6,825,CC1CN(C(=O)C2CCN(S(=O)(=O)c3cccnc3)CC2)c2ccccc2O1 (centres undefined)
7,649,COc1c(S(=O)(=O)Nc2cccnc2)ccc(Cl)c1Cl
8,602,Cc1ccc(Cn2cc(-c3ccncc3)cc2C(=O)N2CCN(C3CCCCC3)CC2)cc1
9,1030,CCCCN1N=C(C(=O)N2CCCCCC2)S(=O)(=O)c2ccccc21
10,628,O=C(NCCCN1CCCC1)c1ccc2c(c1)nnn2Cc1ccccc1
11,785,CSc1ccc(NC(=O)CN2C(=O)C3CCCN3C(=O)c3cc(C)ccc32)cc1 (centres undefined)
12,657,O=C(O)c1nnn(-c2ccccc2F)c1-c1ccccn1
13,651,CC(=O)NCCc1csc(C2CCN(C(=O)C3(c4ccccc4)CC3)CC2)n1
14,840,O=[N+]([O-])c1ccccc1S(=O)(=O)c1ccccc1[N+](=O)[O-]
15,780,CN(C)c1ccc(C(=O)N2CCCC(COc3ccc(C(=O)NC4CC4)cc3)C2)cc1 (centres undefined)
16,680,COCCNC(=O)c1ccc(OC2CCN(CC(c3ccccc3)c3ccccc3)CC2)c(OC)c1
17,874,O=C(c1ccc(Cl)cc1)N1CCCC(c2nnc(-c3ccccc3)o2)C1 (centres undefined)
18,794,O=C(CSc1cc(NCc2ccccc2Cl)ncn1)NC1CCCC1
19,619,COc1ccc(S(=O)Cc2ccc(C(=O)NCCCN3CCc4ccccc4C3)o2)cc1 (centres undefined)
20,677,O=S(=O)(c1ccccc1)c1nnn2c1nc(N1CCN(c3ccccn3)CC1)c1ccccc12

row,RP-LC retention time [s],SMILES
1,1080,CCn1cc(-c2ccc(OC)cc2)cc1C(=O)N1CCCCCC1
2,1240,Cc1ccc(-c2noc(C3CCCN3S(=O)(=O)c3cc(C)ccc3C)n2)cc1 (centres undefined)
3,905,Cc1ccc(S(=O)(=O)N2CCC(CCNC(=O)NC3CCCCC3)CC2)cc1
4,806,CSc1ccccc1NC(=O)c1cnc2ccc(C)cn2c1=O
5,1060,O=C(Nc1ccccc1)C1CCCN(c2nccnc2Sc2ccccc2)C1 (centres undefined)
6,697,Cc1ccc(-c2noc(C3CC3)n2)cc1S(=O)(=O)N1CCC(C(=O)N2CCOCC2)CC1
7,1040,CCS(=O)(=O)N1CCCc2cc(C(=O)Nc3cccc(Br)c3)ccc21
8,586,Cn1cnc(S(=O)(=O)N2CC[C@@H]3COCCN(Cc4ccccc4)[C@@H]3C2)c1
9,630,CS(=O)(=O)N1CC(c2nc(-c3cccnc3)no2)C2(CCOCC2)C1 (centres undefined)
10,607,CS(=O)(=O)N1CC[C@H]2CN(C(=O)c3ccc4ncccc4c3)C[C@@]2(CF)C1
11,1210,CSc1ccc(CNC(=O)C2CCCN(c3nc4c(s3)c(C)nn4-c3ccc(C)cc3)C2)cc1 (centres undefined)
12,710,O=C(NCc1cccs1)C1CC(=O)N(c2ccc3c(c2)CCN3C(=O)C2CC2)C1 (centres undefined)
13,906,COC(=O)C1=CN(C2CC2)c2cc(N3CCN(c4ccc(C(C)=O)cc4)CC3)c(F)cc2S1(=O)=O
14,1290,Cc1ccc(CNC(=O)C2CCCN(c3nc4c(s3)c(C)nn4-c3ccc(Cl)cc3)C2)cc1 (centres undefined)
15,985,CC(C)Cn1cc(CCNS(=O)(=O)c2cccc(Cl)c2)c2cccnc21
16,859,Cc1nc(-c2ccc(NC(=O)N3CCN(c4ccc(F)cc4)CC3)cc2)no1
17,613,CC(C)CN1CCn2cc(C(=O)NC(C)c3ccccc3)nc2C1 (centres undefined)
18,858,O=C(O)C(Cc1c[nH]c2ccccc12)N1C(=O)c2ccccc2C1=O (centres undefined)
19,614,COc1ccc(CC(=O)N2C[C@@H]3C[C@H]2C[C@@H]3NC(=O)c2cccnc2)cc1Cl

# Further lines, the molecule ahead of its results:
row,SMILES,RP-LC retention time [s]
1,Cc1cc(C)cc(Oc2nccn3c(=O)n(CC(=O)Nc4cc(C)ccc4C)nc23)c1,974
2,NC(=O)c1cc(=O)[nH]c2ccccc12,546
3,CCc1cccc(NS(=O)(=O)c2cn(CC)c3ncccc23)c1,937
4,CCn1nccc1C(=O)N1CCN(C(=O)N2C[C@H]3C[C@H](C2)[C@H]2CCCC(=O)N2C3)CC1,609
5,O=C(Nc1ccc(F)cc1)N1CCCC1c1nc(-c2ccc(F)cc2F)no1 (centres undefined),934
6,Cc1cccc(N2CC(C(=O)NC(C)C)CC2=O)c1 (centres undefined),678
7,Cc1ccc(S(=O)(=O)Nc2ccc(-c3cn4cccnc4n3)cc2)cc1[N+](=O)[O-],713
8,CCCCC(=O)Nc1ccc2c(c1)nc(CN1CCN(C(=O)c3ccco3)CC1)n2C,619
9,CC(C)CN1CCN(C(=O)c2nc(-c3ccnc(N4CCCCC4)c3)no2)CC1,588
10,O=C(Cc1csc(NC(=O)NC2CCCC2)n1)NCCc1c[nH]c2ccccc12,754
11,CCCCn1c(CN(C)C(=O)c2ccco2)nc2ccccc21,648
12,O=C(Cn1cnc2nc(N3CCCC(C(=O)NC4CC4)C3)sc2c1=O)NCCC1=CCCCC1 (centres undefined),722
13,COc1ccc(-c2nc(Cc3noc(-c4ccc(C#N)cc4)n3)c(C)o2)cc1,1070
14,Cc1cnn(Cc2nc(-c3ccc(NC(=O)CC4CCCC4)cc3)oc2C)c1,930
15,COc1ccc(-c2cn3c(CC(=O)Nc4ccc(OC)c(Cl)c4)csc3n2)cc1,805
16,O=c1[nH]c2ccccc2c2ccccc12,806
17,CCC(CC)C(=O)N1CCC(N2CCN(CC)C2=O)CC1,686
18,Cc1nc2cc(-c3noc(-c4cccc(C#N)c4)n3)ccc2o1,977
19,CCC(C(=O)NCCc1c[nH]c2ccc(Cl)cc12)n1c2ccccc2c2cnn(C)c(=O)c21 (centres undefined),986
20,COc1ccc(-n2c(=O)n(C)c(=O)c3cc(C(=O)Nc4ccc(C)c(F)c4)cnc32)cc1,965
21,Cc1ncn(CC(=O)Nc2ccc(F)cc2F)c(=O)c1C,642
22,CCOC(=O)c1[nH]c(C)c(CCC(=O)N2CCN(C(=O)c3ccco3)CC2)c1C,709
23,CCN1CCCCc2cc(C(=O)NCC(F)F)sc21,892
24,COc1cccc2c1C(=O)c1c(O)c3c(c(O)c1C2=O)C[C@@](O)(/C(C)=N\O)C[C@@H]3OC1CC(N)C(O)C(C)O1 (some centres undefined),681
25,Fc1cc(F)cc(Cn2cccc2-c2nc(-c3ccncc3)no2)c1,1110

row,SMILES,RP-LC retention time [s]
1,O=C(NCc1cccs1)C(=O)NCC1(c2ccc(F)cc2)CC1,727
2,COc1ccc(NC(=O)Cn2nc3c(N4CCSCC4)nccn3c2=O)cc1OC,720
3,CCN1CCN(C2CCN(C(=O)c3ccco3)CC2)C1=O,627
4,CCOC(=O)c1c(N)n(CCCOC)c2nc3ccccc3nc12,645
5,Cc1cc(-c2nnc(-c3ccc(F)cc3)o2)c(C)n1CC(=O)NC1CCCC1,908
6,CN(C)c1ccc(/C=C/C(=O)c2ccccc2)cc1Br,1170
7,C=CCN1C(=O)COc2ccc(-c3nc(NC(=O)c4cccc(C)c4)sc3C)cc21,1110
8,COc1ccc(CCc2nc(C3CC(=O)N(c4ccc(F)c(Cl)c4)C3)no2)cc1 (centres undefined),1040
9,CN(C)C(=O)c1ccc2c(c1)N(CC(=O)NCCCN1CCCC1=O)C(=O)C1CCCCN21 (centres undefined),619
10,CCCN1C(=O)c2c(C(=O)NCCc3ccc(C)cc3)ncn2CC1(C)C(=O)NCCC(C)C (centres undefined),907
11,Cc1cc(C)c2c(N3CCOCC3)nc(C(=O)N3CCN(C4CCCCC4)CC3)nc2n1,574
12,O=C(Cn1cccc1-c1nnc(C2CC2)o1)NCc1ccc2c(c1)OCO2,749
13,O=C(Nc1ccon1)c1ccc(-n2cccn2)nn1,659
14,Cc1ccc2oc(-c3noc(C(=O)NC(C)Cc4ccco4)n3)c(C)c2c1 (centres undefined),1180
15,Cc1noc(C2CN(C(=O)Nc3ccc(C)c(Cl)c3)CC23CCOCC3)n1 (centres undefined),816
16,CCOc1ccc2nc(C(=O)NC(C)C)cn2n1,731
17,CC(=O)N1CCc2cc(N3CC(C(=O)N4CCC5(CC4)OCCO5)CC3=O)ccc21 (centres undefined),620
18,COc1ccc(Cl)cc1NC(=O)Cn1nc2c(N3CCCCCC3)nccn2c1=O,804
19,CCn1c(=O)c2c(nc3n2CCCN3C2CCCCC2)n(C)c1=O,899
20,CCN(CCCNC(=O)CCc1nnc2ccc(-c3ccccc3)nn12)c1ccccc1,654
21,O=C1c2ccccc2C(=O)c2sc(Nc3ccc(Cl)c(Cl)c3)nc21,1140
22,COc1ccc(-c2noc(Cc3nnc(-c4cccc(OC)c4)o3)n2)cc1,992
23,CN1CCN(c2ccc(NC(=O)C(C)(C)C)c(C(=O)O)c2)CC1,601
24,c1nc2ccc(-c3nc(-c4ccc5c(c4)nnn5CCN4CCCCC4)no3)cc2[nH]1,570
25,Cc1cccc(C(=O)NCCc2c[nH]c3ccc(C)cc23)c1,890
